# Source: US11840686B2, “Modulation of prekallikrein (PKK) expression” (Ionis Pharmaceuticals, Inc., priority 2013, dated 2023)
# Strand notation (5' to 3'): a small letter for the sugar, then the base; units joined by * are phosphorothioate-linked, units joined directly phosphodiester-linked; [ ] holds rarer units or linkages, { } end groups; capitals alone tell only the bases. e = 2'-O-(2-methoxyethyl) (MOE); [5mC] = 5-methylcytosine; d = 2'-deoxy (DNA)
# Tested on: human PKK mRNA
# Assay: Antisense inhibition of human PKK mRNA in HepaRG cells, 3,000 nM (Example 1)
# Format: cell-based
# Details: Table 1; PKK mRNA, HepaRG cells, 3,000 nM, electroporation, ~24 h, relative to untreated control cells
# Method in brief: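 HepaRG cells, 20,000 per well, were electroporated with 3,000 nM 5-10-5 MOE gapmer (phosphorothioate, 5-methylcytosine). After about 24 h, PKK mRNA was measured by qRT-PCR with primer probe set RTS3454 and normalised to RIBOGREEN total RNA. Values are percent inhibition versus untreated cells.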
row,Substance,% inhibition
1,530936 (antisense eT*eG*e[5mC]*eT*eT*dG*d[5mC]*dT*dT*dG*dA*dA*dT*dA*dA*eA*eA*eT*e[5mC]*eA) [compound 530936],27%
2,530954 (antisense eT*eG*eG*eA*eA*dG*dA*dA*dA*dA*d[5mC]*dT*dG*dA*dA*eT*eA*eG*e[5mC]*eA) [compound 530954],47%
3,531003 (eA*eA*e[5mC]*e[5mC]*eA*dG*dA*dG*d[5mC]*dT*d[5mC]*d[5mC]*d[5mC]*dT*dT*eG*eT*eG*eT*e[5mC]; antisense) [compound 531003],49%

# Same assay, conditions: Table 2; PKK mRNA, HepaRG cells, 3,000 nM, electroporation, ~24 h, relative to untreated control cells
row,Substance,% inhibition
1,531077 (eA*eT*eG*e[5mC]*e[5mC]*dA*d[5mC]*dT*d[5mC]*dT*d[5mC]*d[5mC]*dA*dT*dG*e[5mC]*eT*eT*eT*eG; antisense) [compound 531077],51%
2,531038 (antisense e[5mC]*eA*eA*e[5mC]*eA*dG*dT*dT*dG*dG*dT*dA*dT*dA*dA*eA*eT*eT*eG*eT) [compound 531038],22%
3,531007 (eA*eA*e[5mC]*eA*e[5mC]*dA*dA*dT*dT*dG*d[5mC]*dT*dT*d[5mC]*dT*eT*eG*eG*eA*eG; antisense) [compound 531007],51%
4,531028 (antisense eA*eA*eT*eT*e[5mC]*dA*dA*dA*dG*dG*dA*dG*d[5mC]*d[5mC]*dT*eG*eG*eA*eG*eT) [compound 531028],56%
5,531024 (eT*eT*eT*eA*eT*dT*dT*dG*dT*dG*dA*dG*dA*dA*dA*eG*eG*eT*eG*eT; antisense) [compound 531024],69%
6,531035 (antisense eG*eT*eA*eG*eG*d[5mC]*dA*dT*dA*dT*dT*dG*dG*dT*dT*eT*eT*eT*eG*eG) [compound 531035],46%
7,531033 (antisense eA*eT*eT*eG*eG*dT*dT*dT*dT*dT*dG*dG*dA*dA*dT*eT*e[5mC]*eA*eG*eT) [compound 531033],53%

# Same assay, conditions: Table 3; HepaRG cells, electroporation with 3,000 nM antisense oligonucleotide, approx. 24 hours; PKK mRNA by RT-PCR (RTS3454), relative to untreated control cells
row,Substance,% inhibition
1,531141 (antisense eT*eG*e[5mC]*eA*eA*dG*dG*d[5mC]*dA*dT*dG*dT*dG*dT*dG*e[5mC]*eA*e[5mC]*eA*eA) [compound 531141],47%
2,531118 (antisense eG*e[5mC]*e[5mC]*eT*eA*dA*dA*dT*dG*dT*dA*dA*dG*dA*dG*e[5mC]*eT*eA*eA*eA) [compound 531118],26%
3,531142 (antisense eT*eG*eT*eT*eT*dA*dA*dA*dA*dT*dA*dT*d[5mC]*dT*d[5mC]*eT*eA*eT*eA*e[5mC]) [compound 531142],8%
4,531130 (antisense eT*eT*e[5mC]*eT*eG*dT*dG*dT*d[5mC]*dA*dA*dT*dT*dA*dT*eA*eA*eA*e[5mC]*eA) [compound 531130],0%
5,531151 (antisense eT*e[5mC]*eA*e[5mC]*e[5mC]*dA*d[5mC]*d[5mC]*dA*dT*dT*dT*dT*dT*d[5mC]*eA*e[5mC]*eA*eT*eG) [compound 531151],44%
6,531144 (antisense eT*eG*eA*eA*eG*dA*dT*dT*d[5mC]*dT*dA*dT*dT*dT*dA*eA*e[5mC]*eA*eA*eA) [compound 531144],0%

# Same assay, conditions: Table 4; HepaRG cells, electroporation with 3,000 nM antisense oligonucleotide, approx. 24 hours; PKK mRNA by RT-PCR (RTS3454), relative to untreated control cells
row,Substance,% inhibition
1,531212 (eA*e[5mC]*eA*eT*e[5mC]*dA*dG*dT*dA*dG*d[5mC]*dT*dT*d[5mC]*dA*eG*eA*eT*eG*eT; antisense) [compound 531212],56%
2,531221 (eA*eA*eG*eG*eG*dA*dT*dT*dT*dA*dA*dA*dA*dT*dT*eT*eT*eT*eA*eT; antisense) [compound 531221],0%
3,531161 (antisense e[5mC]*eA*eG*eA*e[5mC]*dA*d[5mC]*d[5mC]*dT*dT*d[5mC]*dT*dT*d[5mC]*dA*e[5mC]*eA*eA*eG*eG) [compound 531161],40%
4,531220 (e[5mC]*eA*eA*eT*eA*d[5mC]*dA*dG*dG*dT*dA*dA*dA*dT*dT*eT*e[5mC]*eA*e[5mC]*eG; antisense) [compound 531220],56%
5,531175 (antisense eT*eA*e[5mC]*eT*e[5mC]*dA*dG*dG*dA*dA*dA*dT*dT*dA*dG*eA*eA*eT*eA*eT) [compound 531175],25%
